For data set [1], the system named is primary human keratinocytes. In words: Cell viability in keratinocyte CCL2 assay (assay number 1243). It is filed as cell-based. The conditions noted are these: Homo sapiens. The source says:
(§1) • 1. Determination of inhibition of CCL2 release from IL-4, IL-13, IL-22 and IFN-γ-stimulated primary human keratinocytes [assay number 1280] and determination of the effect on cell viability [assay number 1243]. • 2. Determination of inhibition of IL-8 release from IL-17A and TNFα-induced primary human keratinocytes [assay number 1250] and determination of the effect on cell viability [assay number 1244]. • 3. Determination of inhibition of IL-17A secretion from human PBMC stimulated with antiCD3/antiCD28-coated beads [assay number 1321] and determination of the effect on cell viability [assay number 1322]. • 4. Determination of inhibition of IL-4 and IL-2 secretion from human CD4-positive T-cells stimulated with antiCD2/antiCD3/antiCD28-coated beads [assay number 1297, 1298] and determination of the effect on cell viability [assay number 1299].

Assay in data set [2]: as above
The conditions noted are these: human. The format is cell-based, human.
Description: as §1

For data set [3], the system named is IL-17A secretion from human PBMC stimulated with antiCD3/antiCD28-coated beads. Briefly: PBMC IL-17 assay (assay number 1321). The conditions noted are these: for Max Eff.: IL-17 (1321): highest effect as percentage of control maximum effect. It is filed as cell-based. Here is the method: Inhibition of IL-17A secretion from human PBMC stimulated with antiCD3/antiCD28-coated beads. LEO Pharma Open Innovation assay number 1321
The inflammatory skin disease psoriasis is characterized by cytokines IL-17A and TNFα. In the present assay, human peripheral blood mononuclear cells (PBMC) are stimulated with beads coated with antibodies against CD3 and CD28 to activate the T-cell receptor, and stimulated with IL-23 to promote T-helper17 activity. The cells are incubated for three days, then the secreted level of IL-17A is measured in the culture supernatant using AlphaLISA and the amount of living cells is measured by addition of resazurin (PrestoBlue®) to identify compounds that inhibit cell proliferation or viability. […] Compounds which inhibit IL-17A secretion may be expected to have efficacy in psoriasis.
• PBMC are isolated from fresh human buffy coats by centrifugation on Lymphoprep® following instructions from Sebmate® • Cells are spun down and resuspended in freezing medium (RPMI1640+20% FBS+5% DMSO) • Cells are frozen in aliquots of 8×10^7 cells/vial matching one 384 plate. Cells are placed in Coolcell box and placed in −80° C. freezer for one day. Vials are moved to the −150° C. freezer in a prechilled box.
• Prepare assay medium: RPMI1640+10% heat inactivated FBS and 1% pen/strep, supplemented with human IL-23, 20 ng/mL (R&D systems, cat no 1290-IL-010) • Test compounds: Prepare compound-containing source plate, i.e. titrations in DMSO to be transferred to the assay plate. • Add 70 nL compounds and controls from the source plate to the assay plate. • Thaw the cells by adding 1 vial to 20 ml warm assay medium • Centrifuge the cells down at 170 G in 10 minutes, remove the supernatant and resuspend in new medium. • Filter the cells though a 37 µm strainer. • Count the cells in the cell counter. • Beads (T Cell Activation/Expansion Kit-human, Miltenyi Biotech, cat. no. 130-091-441): Coat beads with antibodies (antiCD3 and antiCD28) according to the kit procedure. • Add the beads to the cells, one bead per cell, 2.1e+06 cells/ml. Use a pipette to mix the cells and beads carefully. • Seed the cell/bead mixture into the assay plate, 70 μL/well ([…]) • Place the plates in a humidity chamber with lid (24.5×24.5 cm box added H2O in the bottom). • Incubate plates at 37° C., 5% CO2/95% air for 3 days.
• IL-17A concentration in the supernatants is measured using an alphaLISA kit (Perkin Elmer, cat no. AL219F). • Pretest to find optima dilution of samples: Test 5 μL supernatant from control wells and run IL-17A alphaLISA assay with only 2 hours of incubation. • When data are available, remove assay plates from incubation and equilibrate to room temperature for 30 minutes. • Transfer 5 μL or corrected amounts of supernatant to a 384-proxy plate • Add 5 μL alphaLISA acceptor beads. • Incubate 1 hour at room temperature • Add 5 μL donor beads • Incubate overnight at room temperature protected from light. • Add 7 μL PrestoBlue reagent (resazurin)/well to the assay plate and incubated for 2-4 hours at 37° C./5% CO2. The fluorescence in the wells is measured (Ex615/Em 535).
IL-17A concentration in the supernatants is measured using an alphaLISA kit (Perkin Elmer, cat no. AL219F).
The capacity of the test compound to inhibit IL-17A release is normalized to the signal in the negative control wells treated with a toxic compound, Terfenadine.

Data set [4] has as its system Pancreatic MIA PaCa-2. Briefly: CellTiter Glo cell viability assay. The format is cell-based, human. In short, it runs like this: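 MIA PaCa-2 human pancreatic cancer cells were plated in 96-well plates, 1.7*10^3 cells/well in quadruplicate, and compounds were added as serial dilutions to build dose-response curves. Viability was read by CellTiter Glo Luminescence (Promega) on a Varioskan LUX reader. Relative luminescence was plotted against log dose, and IC50 was obtained by nonlinear regression in GraphPad Prism 7.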

Setting [5] is: Keratinocyte, cell viability in CCL2 assay, read-out: Abs EC50: Viab (1243).
[6] abbreviates: maximum reduction of cell viability in CCL2 assay, read-out: Max Eff.: Viab (1243).
Where [7] appears, read: inhibition of IL-17A secretion, human PBMC, read-out: Abs EC50: IL-17 (1321).
[8] abbreviates: Homo sapiens, MIA PaCa-2, Table 5A: 11 dilutions 3-0.00001 μM, single experiments Exp E-K, read-out: IC50.
Where [9] appears, read: Homo sapiens, MIA PaCa-2, 72 h, 3 Days of treatment, 18 2-fold dilutions 5-0.00003 μM, read-out: Average IC50.
Where [10] appears, read: Homo sapiens, MIA PaCa-2, 72 h, Table 4: 3 Days of treatment, 18 2-fold dilutions 5-0.00003 μM, Average (1, 8) or single Exp A-D, read-out: IC50.
Setting [11] is: Homo sapiens, MIA PaCa-2, 120 h, Day 5 upon drug treatment, 10 dosages 0.0001-20 μM (Compound 8: 18 dosages 0.000038146 to 5 μM), read-out: IC50.
Where [12] appears, read: Homo sapiens, MIA PaCa-2, MIA PaCa-2/CRL-1420, 11 dilutions 3-0.00001 μM, Table 6, read-out: IC50.
Setting [13] is: Homo sapiens, MIA PaCa-2, Table 5A: 11 dilutions 3-0.00001 μM, average of experiments, read-out: IC50 average.
[14] abbreviates: keratinocyte CCL2 assay, read-out: EC50, cell viability.
[15] abbreviates: keratinocyte CCL2 assay, read-out: maximum reduction of cell viability.
Where [16] appears, read: Table 5A: 11 dilutions 3-0.00001 μM, single experiments Exp E-K, read-out: IC50.

The record followed here is patent US20260209152A1, “Substituted Hydroxystilbene Compounds and Derivatives, Synthesis and Uses Thereof” (Kynan Duke IP, LLC, priority 2019, published 2026).

Values joined by “and” are separate entries in the source; they are usually repeats but may differ in a detail not shown here. Identical values can stand only once. Like-named read-outs stand apart in the source and are kept apart here.

As to `COc1cc(/C=C/c2cc(O)cc(OC)c2CC=C(C)C)ccc1NC(=O)CN` [Compound 31, (E)-2-amino-N-(4-(5-hydroxy-3-methoxy-2-(3-methylbut-2-en-1-yl)styryl)-2-methoxyphenyl)acetamide], the figures for the EC50 in data set [1] (setting [5]) and in data set [3] (setting [7]) were 0.431 µM and 4.87 µM, respectively. The cytotoxicity in data set [2] (setting [6]) turned out to be 86%. The “Max Eff.: IL-17 (1321)” value in data set [3] is given as 53%. The IC50 in data set [4] (setting [8]) was determined as 3.18 µM.

With `COc1cc(/C=C/c2cc(O)cc(OC)c2CC=C(C)C)ccc1O` [Compound 1, (E)-3-(4-hydroxy-3-methoxystyryl)-5-methoxy-4-(3-methylbut-2-en-1-yl)phenol], the EC50 in data set [1] (setting [5]) was 0.202 µM; in data set [3] (setting [7]) it was 4.43 µM. In addition, in data set [2] (setting [6]), the cytotoxicity was found to be 77%. Further, the “Max Eff.: IL-17 (1321)” value in data set [3] turned out to be 54%. In addition, the IC50 in data set [4] (setting [9]) came out at 0.127 µM; in data set [4] (Homo sapiens, MIA PaCa-2, 72 h, Day 3 upon drug treatment, 10 dosages 0.0001-20 μM, read-out: IC50), 0.204 µM; in data set [4] (setting [10]) it was 0.888 µM; in data set [4] (setting [11]) it was 0.0507 µM; in data set [4] (setting [12]), 0.109 µM; in data set [4] (setting [13]) it was 0.0806 µM.

Regarding `CCOc1cc(O)cc(/C=C/c2ccc(NC(=O)C(=O)O)c(OC)c2)c1CC=C(C)C` [Compound 35, (E)-2-((4-(3-Ethoxy-5-hydroxy-2-(3-methylbut-2-en-1-yl)styryl)-2-methoxyphenyl)amino)-2-oxoacetic acid], the EC50 in data set [1] (setting [5]) and in data set [3] (setting [7]) was 5 µM in each case. In addition, the cytotoxicity in data set [2] (setting [6]) is 30%. The “Max Eff.: IL-17 (1321)” value in data set [3] came to 19%.

Consider `CCOc1cc(O)cc(/C=C/c2ccc(O)c(O)c2)c1CC=C(C)C` [Compound 20, (E)-4-(3-Ethoxy-5-hydroxy-2-(3-methylbut-2-en-1-yl)styryl)benzene-1,2-diol], for which the EC50 in data set [1] (setting [5]) turned out to be 0.442 µM; in data set [3] (setting [7]) it was 1.65 µM. The cytotoxicity in data set [2] (setting [6]) turned out to be 61%. Also, the “Max Eff.: IL-17 (1321)” value in data set [3] was 85%. Moreover, the IC50 in data set [4] (setting [12]) stood at 0.0549 µM.

`COc1cc(/C=C/c2cc(O)cc(OC)c2CC=C(C)C)ccc1NC=O` [Compound 27, (E)-N-(4-(5-hydroxy-3-methoxy-2-(3-methylbut-2-en-1-yl)styryl)-2-methoxyphenyl)formamide]: the EC50 worked out at 0.041 µM in data set [1] (setting [5]), 0.041 µM in data set [1] (setting [14]) and 2.12 µM in data set [3] (setting [7]). Also, in data set [2] (setting [15]), the cytotoxicity is 67%. The “reduction of IL-17A release, in words” value in data set [3] is given as “significantly less effective”. Besides, in data set [3], the “Max Eff.: IL-17 (1321)” value is 65%. Moreover, the IC50 in data set [4] (setting [12]) is 0.0214 µM; in data set [4] (setting [13]) it was 0.015 µM; in data set [4] (setting [8]) it was 0.01 to 0.1 µM; in data set [4] (setting [16]), 0.0147 µM and 0.0134 µM and 0.0168 µM. The “Fold more potent than 1 [KYN-001]” value in data set [4] (MIA PaCa-2 cells) was “approximately 5”.

`CCOc1cc(O)cc(/C=C/c2ccc(NC=O)c(OC)c2)c1CC=C(C)C` [Compound 28, (E)-N-(4-(3-Ethoxy-5-hydroxy-2-(3-methylbut-2-en-1-yl)styryl)-2-methoxyphenyl)formamide]: the EC50 in data set [1] (setting [5]) was found to be 0.124 µM; in data set [1] (setting [14]), 0.124 µM; in data set [3] (Homo sapiens, PBMC, read-out: EC50, inhibition of IL-17A secretion), 0.526 µM; in data set [3] (setting [7]), 0.526 µM. Also, the cytotoxicity in data set [2] (setting [15]) turned out to be 68%. For the same compound, the “reduction of IL-17A release, in words” value in data set [3] is on record as “low potency reduction of IL-17A release”. In data set [3] (Homo sapiens, PBMC, read-out: maximum efficacy, IL-17A secretion), the Emax was 73%. Further, the “Max Eff.: IL-17 (1321)” value in data set [3] was 73%. The IC50 in data set [4] (setting [12]) is 0.0129 µM; in data set [4] (setting [8]), under 0.001 µM; in data set [4] (setting [16]), 0.00094 µM and 0.000936 µM.

For `CCOc1cc(O)cc(/C=C/c2ccc(O)c(OC)c2)c1CC=C(C)C` [Compound 8, (E)-3-Ethoxy-5-(4-hydroxy-3-methoxystyryl)-4-(3-methylbut-2-en-1-yl)phenol], the EC50 in data set [1] (setting [5]) came out at 0.235 µM; in data set [3] (setting [7]), 1.55 µM. The cytotoxicity in data set [2] (setting [6]) turned out to be 99%. In data set [3], the “Max Eff.: IL-17 (1321)” value was 69%. The IC50 in data set [4] (setting [9]) is 0.0181 µM; in data set [4] (setting [10]), 0.21 µM; in data set [4] (setting [11]), about 0.00047 µM; in data set [4] (setting [12]), 0.0234 µM; in data set [4] (setting [13]), 0.025 µM; in data set [4] (Table 5A: 11 dilutions 3-0.00001 μM, average of experiments, read-out: IC50 average), 0.0255 µM. Further, the “Fold IC50” value in data set [4] (IC50 of 1 [KYN-001] vs 8 [KYN-119], 3 Days) came out at 7.0.
